What is called inhibition is the share of the control response that was lost under treatment. The IC50 is the concentration at which inhibition is half-maximal.

We go through 19 compounds from US5212182A, “Substituted quinolinyl- and naphthalenylbenzamides or benzylamines and related compounds useful as analgesics” (American Home Products Corpooration, priority 1990, dated 1993).

For assay [1], the target named is T1, BK2 receptor sites in guinea pig ileum (Cavia porcellus, UniProt O70526).
T1 construct: The distal portion of the ileum is removed and placed in ice cold homogenization buffer; from tissue; host or cells: distal ileum of adult male Hartley guinea pigs (animals from Charles River), washed membrane homogenate
T1 sequence (O70526 1-372): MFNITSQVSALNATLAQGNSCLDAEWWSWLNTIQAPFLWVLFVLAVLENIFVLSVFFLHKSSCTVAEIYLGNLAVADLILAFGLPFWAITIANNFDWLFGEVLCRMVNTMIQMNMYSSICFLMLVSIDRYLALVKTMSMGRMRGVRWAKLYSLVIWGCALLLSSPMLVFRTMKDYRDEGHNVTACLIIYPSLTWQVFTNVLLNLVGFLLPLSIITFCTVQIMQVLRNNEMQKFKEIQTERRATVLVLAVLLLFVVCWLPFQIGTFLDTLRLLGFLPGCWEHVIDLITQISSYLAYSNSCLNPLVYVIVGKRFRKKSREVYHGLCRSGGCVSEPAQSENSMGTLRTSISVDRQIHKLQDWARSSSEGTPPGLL
Kind of assay: Bradykinin Receptor Binding Assay (3H-BK Binding, G. P. Ileum). Conditions: 80 pM 3H-BK. More on the design: species or system guinea pig (Hartley strain). The procedure:
Protocol for Bradykinin Receptor Binding Assay
The purpose of this assay is to identify compounds which compete specifically with tritiated bradykinin (^3 H--BK) for BK2 receptor sites in guinea pig ileum.
The guinea pig (adult male Hartley strain, 350-500 g, Charles River) is euthanized by stunning followed by decapitation. The distal portion of the ileum is removed and placed in ice cold homogenization buffer (25 mM N-[tris(hydroxymethyl)methyl]-2-aminoethanesulfonic acid (TES), 1 mM 1,10-phenanthroline, adjusted to pH 6.8 with NH4 OH). The contents of the ileal lumen are rinsed out with cold homogenization buffer. The tissue is cut into small pieces and homogenized in 20 volumes of homogenization buffer.
The homogenate is filtered through a surgical gauze sponge and centrifuged at 50,000×g for 20 minutes at 4° C. The supernatant fluid is discarded and the homogenization and centrifugation procedure is repeated. After discarding the supernatant fluid, the final pellet is resuspended in 40 volumes of assay buffer (25 mM TES, pH=6.8, 1 mM 1,10-phenanthroline, 1 mM (2RS, 3RS)-1,4-dimercapto-2,3-butanediol (Cleland's reagent), 2 μM captopril, 140 μg/mL bacitracin and 0.1% bovine serum albumin (BSA)). The homogenate is filtered once more through a surgical gauze sponge and kept on ice until use.
The assay is performed using only polypropylene pipet tips and polypropylene test tubes. Each tube receives 100 μL of 800 pM ^3 H--BK, 100 μL of the test compound solution or vehicle (TES assay buffer), and 100 μL of 25 mg/mL tissue homogenate in a total volume of 1 mL. The final concentration of ^3 H--BK is 80 pM. The final tissue concentration is 2.5 mg/mL. Compounds are screened at 100 μM or 10 μM. Nonspecific binding is determined in the presence of 1 μM unlabeled bradykinin. All determinations are made in triplicate. Three 100 μL aliquots of the 800 pM ^3 H--BK working solution are added directly to scintillation vials to determine the total added radioactivity.
The tubes are incubated for 90 minutes at 25° C. while being gently agitated on an orbital shaker. Bound ligand is separated from free ligand, using Whatman GF/B glass fiber filters (pretreated with 0.1% aqueous polyethyleneimine made neutral with HCl). Assay tubes and glass fiber filters are rinsed three times with 3 mL of cold physiological saline.
The filter discs are transferred to 20 mL scintillation vials. Ten mL of aqueous sample LSC cocktail (Aquassure, New England Nuclear) is added to each vial. After capping, the vials are agitated for 5 minutes on an orbital shaker. The samples are counted for ten minutes in a refrigerated liquid scintillation counter.
The following values are obtained:
Bns : Nonspecific binding
Bx : Total binding in the presence of the test compound
C: Control specific binding C=Bt -Bns
D: Specific binding in the presence of the test compound D=Bx -Bns
Percent of Control: D/C×100
Percent Inhibition: (1-D/C)×100
After calculation of Percent of Control for each dilution, the values are analyzed and the IC50 with its 95% confidence limits is determined on a Hewlett Packard 9816 computer using the program "PS-NONLIN" (generalizednon-linear regression with inverse prediction and graphics).
The test results are reported in the TABLE below under the heading 3H--BK Binding, G. P. Ileum.

In assay [2] the test system is writhing response induced by bradykinin in mice. Kind of assay: Bradykinin-induced Writhing in Mice. Type of assay: in vivo, mice (male CD-1). The procedure:
Protocol for Bradykinin-induced Writhing in Mice
The purpose of this assay is to determine the ability of test drugs to inhibit the writhing response induced by bradykinin in mice. This test is a primary in vivo screen for bradykinin antagonist analgesics.
Groups of 10 mice each (male CD-1 mice (14-19 g) from Charles River, Kingston, NY, fasted overnight prior to experiment, but having free access to water) are used. Each mouse receives an intraperitoneal injection of 1 mg/kg PGE2 (0.1 mL/10 g body weight) followed 20 minutes later by an i.p. injection of bradykinin 0.5 mg/kg. The number of writhes per mouse is determined for 2 minutes after bradykinin injection. For a primary screen, drugs are administered orally at 20 mg/kg 1 hour prior to the bradykinin.
The percent inhibition of writhing obtained is calculated as follows: [formula]
Several logarithmically spaced doses are tested and the ED50 (dose which inhibits the writhing response by 50%) is determined by regression methods with inverse prediction.
The test results are reported in the TABLE below under the heading BK Induced Writhing in Mice.
A general note: In writhing tests, fewer writhes than in controls are read as antinociception.

Assay [3] has as its system bradykinin-induced hyperalgesia (pain threshold) in rats. The assay can be described thus: Bradykinin-induced Hyperalgesia in Rats. It counts as in vivo, rats (female Sprague Dawley). The settings on record: 100 mg/kg p.o. The procedure:
Protocol for Bradykinin-induced Hyperalgesia in Rats
The purpose of this assay is to evaluate analgesic activity of bradykinin antagonists in an inflammatory pain model in rats.
Animals (female Sprague Dawley rats (Charles River, Kingston, NY) 80-115 gms) are fasted overnight, with water given ad lib, if the compounds are to be administered orally. Ten rats are used per test group and six per normal group.
Test compounds are suspended in 0.5% Tween 80 in distilled water, and are administered orally 1 hour (or i.p. 5 minutes) prior to the injection of bradykinin.
The animals are randomized prior to drug administration in order to make the study blind. Bradykinin is injected, as the phlogistic agent, into the subplantar region of the right hindpaw of the rats, in a 0.01 mg/0.1 mL saline solution. The pain threshold is measured 1 minute later using a modification of the Randall-Selitto method, [Randall, et al., Archives International Pharmacodynamics, VIII N4, p 409-419 (1957)].
Animals are placed in a horizontal position with a hindpaw hanging down on the apparatus. The teflon point is placed on the foot pad and a steady pressure is applied, using a foot pedal. The endpoint is determined when the rat emits a squeak or forcefully attempts to remove its paw from the apparatus. […]
Drug effects are expressed as a percent change in pain threshold from bradykinin control values. […]

Each structure is given as a SMILES string.

`CCCCN1CCC(NC(=O)c2cccc(OCc3ccnc4ccccc34)c2)CC1` [Example 9, N-(1-Butyl-4-piperidinyl)-3-(4-quinolinylmethoxy)benzamide] displayed an inhibition at 10 µM in assay [1] of 21.4%.
As to `O=C(NC1CCN(Cc2ccccc2)CC1)c1cccc(OCc2ccc3ccccc3n2)c1` [Example 7, N-[1-(Phenylmethyl)-4-piperidinyl]-3-(2-quinolinylmethoxy)benzamide], the inhibition at 10 µM in assay [1] stood at 43.2%.
As for `O=C(NC1CCN(Cc2ccccc2)CC1)c1ccccc1OCc1ccc2ccccc2n1` [Example 8, N-[1-(Phenylmethyl)-4-piperidinyl]-2-(2-quinolinylmethoxy)benzamide], testing at 10 µM in assay [1] gave an inhibition of 8.4%.
`CCN(CC)C(=O)c1ccc(CN2CCC(NC(=O)c3ccc(OCc4ccnc5ccccc45)cc3)CC2)cc1` [Example 15, N-[1-[[4-[(Diethylamino)carbonyl]phenyl]methyl]-4-piperidinyl]-4-(4-quinolinylmethoxy)benzamide] came in with an inhibition at 10 µM in assay [1] of 30.2%.
In assay [1], `O=C(NC1CCN(Cc2ccccc2)CC1)c1ccc(OCc2ccnc3ccccc23)cc1` [Example 1, N-[1-(Phenylmethyl)-4-piperidinyl]-4-(4-quinolinylmethoxy)benzamide] displayed a concentration for half-maximal inhibition (IC50) of 9.1 µM and an inhibition at 100 µM of 98.8%. Further, in assay [2] (30 mg/kg i.p.), the “BK Induced Writhing in Mice, % inhibition” value turned out to be 40.0%. Moreover, the “BK Induced Writhing in Mice, % inhibition” value in assay [2] (300 mg/kg p.o.) is 52.0%. Moreover, in assay [3], the “increase of BK induced pain threshold in rats” value turned out to be 44.8%.
As for `O=C(NC1CCN(Cc2ccccc2)CC1)c1ccc(NCc2ccnc3ccccc23)cc1` [Example 18, N-[1-(Phenylmethyl)-4-piperidinyl]-4-[(4-quinolinylmethyl)amino]benzamide], in assay [1], testing at 10 µM gave an inhibition of 8.1%.
In assay [1], `CCCCN1CCC(NC(=O)c2ccc(NCc3ccnc4ccccc34)cc2)CC1` [Example 19, N-(1-Butyl-4-piperidinyl)-4-[(4-quinolinylmethyl)amino]benzamide] gave an inhibition at 10 µM of 32.8%.
The compound `CCCCN1CCC(NC(=O)c2ccc(OCc3cccc4ccccc34)cc2)CC1` [Example 11, N-(1-Butyl-4-piperidinyl)-4-(1-naphthalenylmethoxy)benzamide] registered an inhibition at 10 µM in assay [1] of 11.1%.
In turn, `c1ccc(CN2CCC(NCc3ccc(OCc4ccnc5ccccc45)cc3)CC2)cc1` [Example 16, 1-(Phenylmethyl)-N-[[4-(4-quinolinylmethoxy)phenyl]methyl]-4-piperidinamine] gave an inhibition at 10 µM in assay [1] of 27.4%.
The same measure, in the same setting: the same measure for `O=C(NC1CCN(Cc2ccccc2)CC1)c1ccc(OCc2cccc3ccccc23)cc1` [Example 10, N-[1-(Phenylmethyl)-4-piperidinyl]-4-(1-naphthalenylmethoxy)benzamide]: 8.6%; for `CCCC(=O)N(Cc1ccc(OCc2ccnc3ccccc23)cc1)C1CCN(Cc2ccccc2)CC1` [Example 17, N-[1-(Phenylmethyl)-4-piperidinyl]-N-[[4-(4-quinolinylmethoxy)phenyl]methyl]butanamide]: 25.3%.
For the compound `O=C(NC1CCN(Cc2ccccc2)CC1)c1ccc(OCc2ccc3ccccc3n2)cc1` [Example 2, N-[1-(Phenylmethyl)-4-piperidinyl]-4-(2-quinolinylmethoxy)benzamide], the IC50 in assay [1] was found to be 33.6 µM. Testing at 100 µM in assay [1] gave an inhibition of 93.8%. Moreover, the results for the “BK Induced Writhing in Mice, % inhibition” value in assay [2] (30 mg/kg i.p.), in assay [2] (100 mg/kg p.o.) and in assay [2] (200 mg/kg p.o.) were 40.0%, 32.0% and 22.5%, respectively.
In assay [1], `O=C(NC1CCN(Cc2ccccc2)CC1)c1ccccc1OCc1ccnc2ccccc12` [Example 6, N-[1-(Phenylmethyl)-4-piperidinyl]-2-(4-quinolinylmethoxy)benzamide] gave an inhibition at 10 µM of 17.3%.
`CCCCN1CCC(NC(=O)c2ccc(OCc3ccnc4ccccc34)cc2)CC1` [Example 3, N-(1-Butyl-4-piperidinyl)-4-(4-quinolinylmethoxy)benzamide] showed an inhibition at 10 µM in assay [1] of 15.2%.
The compound `O=C(NC1CCN(Cc2ccccc2)CC1)c1ccc(/C=C\c2ccnc3ccccc23)cc1` [Example 13, (Z)-N-[1-(Phenylmethyl)-4-piperidinyl]-4-[2-(4-quinolinyl)ethenyl]benzamide] gave an inhibition at 10 µM in assay [1] of 35.8%.
Still for that read-out and setting: the result for `CCCCN1CCC(NC(=O)c2ccc(OCc3ccc4ccccc4n3)cc2)CC1` [Example 4, N-(1-Butyl-4-piperidinyl)-4-(2-quinolinylmethoxy)benzamide] reads 10.4%.
In assay [1], `O=C(NC1CCN(Cc2ccccc2)CC1)c1cccc(OCc2ccnc3ccccc23)c1` [Example 5, N-[1-(Phenylmethyl)-4-piperidinyl]-3-(4-quinolinylmethoxy)benzamide] registered an IC50 of 7.3 µM and an inhibition at 10 µM of 63.8%. In assay [2] (30 mg/kg i.p.), the “BK Induced Writhing in Mice, % inhibition” value turned out to be 31.0%. Moreover, the “BK Induced Writhing in Mice, % inhibition” value in assay [2] (200 mg/kg p.o.) is listed as 22.0%.
The compound `O=C(NC1CCN(Cc2ccccc2)CC1)c1ccc(OCc2cc[n+]([O-])c3ccccc23)cc1` [Example 14, N-[1-(Phenylmethyl)-4-piperidinyl]-4-(4-quinolinylmethoxy)benzamide N-Oxide] came in with an inhibition at 10 µM in assay [1] of 30.2%.
`O=C(NC1CCN(Cc2ccccc2)CC1)c1ccc(/C=C/c2ccnc3ccccc23)cc1` [Example 12, (E)-N-[1-(Phenylmethyl)-4-piperidinyl]-4-[2-(4-quinolinyl)ethenyl]benzamide]: in assay [1], the inhibition at 10 µM is 78.7%. Also, the “BK Induced Writhing in Mice, % inhibition” value in assay [2] (30 mg/kg i.p.) is reported as 10.0%.
